Measurements as given in ChEMBL document CHEMBL1133376, “Recognition and inhibition of HIV integrase by a novel dinucleotide” (Bioorg Med Chem Lett, 2000).

Tests used:
[1] = biological target: Human immunodeficiency virus type 1 integrase (Human immunodeficiency virus 1) (UniProt Q7ZJM1); test: Inhibition of 3' processing step useful in the integration of viral DNA into host cell DNA by inhibiting HIV integrase by compound
[2] = biological target: Human immunodeficiency virus type 1 integrase (Human immunodeficiency virus 1) (UniProt Q7ZJM1); test: Inhibition of strand transfer step useful in the integration of viral DNA into host cell DNA by inhibiting HIV integrase by compound

Human immunodeficiency virus type 1 integrase (Human immunodeficiency virus 1), sequence (Q7ZJM1 as listed by the source): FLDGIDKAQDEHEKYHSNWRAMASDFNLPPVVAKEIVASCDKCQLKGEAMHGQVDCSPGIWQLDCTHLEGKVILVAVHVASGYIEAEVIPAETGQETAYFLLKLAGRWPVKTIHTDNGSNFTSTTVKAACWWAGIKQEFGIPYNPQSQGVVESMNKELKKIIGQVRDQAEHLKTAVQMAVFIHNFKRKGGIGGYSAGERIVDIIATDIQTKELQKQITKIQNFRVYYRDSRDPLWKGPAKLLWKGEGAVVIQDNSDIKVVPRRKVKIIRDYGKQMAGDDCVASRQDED

Row | Compound | Inhibitory activity [1] | Inhibitory activity [2]
1 | Cc1cn([C@H]2C[C@H](N=[N+]=[N-])[C@@H](COP(=O)(O)O)O2)c(=O)[nH]c1=O | > 110 µM | 140 µM
2 | Nc1ccn([C@H]2C[C@H](O)[C@@H](COP(=O)(O)O[C@H]3[C@H](n4cnc5c(N)ncnc54)CO[C@@H]3CO)O2)c(=O)n1 | 200 µM | 200 µM
3 | Nc1ccn(C2CCC(COP(=O)(O)O)O2)c(=O)n1 (configuration not stated) | 50 µM | 45 µM

More lines, now with the values ahead:

Row | Inhibitory activity [1] | Inhibitory activity [2] | Compound
4 | 6 µM | 3 µM | Nc1ccn([C@H]2C[C@H](O)[C@@H](COP(=O)(O)O[C@H]3C[C@H](n4cnc5c(N)ncnc54)O[C@@H]3COP(=O)(O)O)O2)c(=O)n1
5 | > 200 µM | > 200 µM | Nc1ncnc2c1ncn2C1COC(COP(=O)(O)O)C1O (configuration not stated)
6 | 19 µM | 25 µM | Nc1ccn([C@H]2C[C@H](O)[C@@H](COP(=O)(O)O[C@H]3[C@H](n4cnc5c(N)ncnc54)CO[C@@H]3COP(=O)(O)O)O2)c(=O)n1
